This is an account of results in article PMC7315563, “Bioactive fluorenes. Part III: 2,7-dichloro-9H-fluorene-based thiazolidinone and azetidinone analogues as anticancer and antimicrobial against multidrug resistant strains agents” (BMC Chemistry, 2020).

≈ marks a conversion by molar mass, not a printed value.

Assay [1] deals with Klebsiella pneumoniae (K. pneumoniae), multidrug resistant clinical isolate. In words: agar well diffusion assay. In kind it is cell-based. The following applies: 24 h, 500 µg/mL of tested compound. A digest of the protocol: (§1)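 Multidrug-resistant clinical isolates swabbed on Mueller–Hinton agar at about 1–5 × 10^5 CFU/mL; 0.5 cm wells received 50 μL compound at 500 μg/mL in 1% DMSO. Incubation 24 h, 37 °C for bacteria and C. albicans, 25 °C for Aspergillus; inhibition zone diameter measured in mm.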
On the technique in general: A growth-free zone around the sample is the usual read-out of agar diffusion tests.

Assay [2] concerns Pseudomonas aeruginosa (P. aeruginosa), multidrug resistant clinical isolate. Kind of assay: agar well diffusion assay. In kind it is cell-based. The following applies: 24 h, 500 µg/mL of tested compound. An outline of the steps: as §1
For assay [3], the system named is Staphylococcus aureus (S. aureus), multidrug resistant clinical isolate. In words: agar well diffusion assay. In kind it is cell-based. The following applies: S. aureus, 500 µg/mL of tested compound, 24 h; for zone of inhibition at 500 µg/mL: Staphylococcus aureus. A digest of the protocol:
as §1

Assay [4] concerns MDA-MB-231 human breast cancer cells. Kind of assay: cell viability assay (MTT). It counts as cell-based. The conditions noted are these: 24 h; for viability at 1 µg/mL: read-out: Validity (%) for sample concentrations (µg/mL) 1; for viability at 10 µg/mL: read-out: Validity (%) for sample concentrations (µg/mL) 10; for viability at 31.25 µg/mL: read-out: Validity (%) for sample concentrations (µg/mL) 31.25; for viability at 62.5 µg/mL: read-out: Validity (%) for sample concentrations (µg/mL) 62.5; for viability at 125 µg/mL: read-out: Validity (%) for sample concentrations (µg/mL) 125; for viability at 250 µg/mL: read-out: Validity (%) for sample concentrations (µg/mL) 250; for viability at 500 µg/mL: read-out: Validity (%) for sample concentrations (µg/mL) 500. A digest of the protocol:
(§2)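 24 h treatment, eight concentrations from 0 to 500 µg/mL, cells plated one day earlier at 5000/well in RPMI-1640 + 10% FBS. MTT endpoint, OD 570 nm.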

The subject of assay [5] is WI-38 human normal fibroblast cells. In words: cell viability assay (MTT). In kind it is cell-based. The following applies: 24 h; for viability at 31.25 µg/mL: read-out: Validity (%) for sample concentrations (µg/mL) 31.25; for viability at 62.5 µg/mL: 62.50 µg/mL, read-out: Validity (%) for sample concentrations (µg/mL) 62.50; for viability at 125 µg/mL: read-out: Validity (%) for sample concentrations (µg/mL) 125; for viability at 250 µg/mL: read-out: Validity (%) for sample concentrations (µg/mL) 250; for viability at 500 µg/mL: read-out: Validity (%) for sample concentrations (µg/mL) 500. An outline of the steps: as §2

Assay [6] relates to A549 cells. Kind of assay: FACS analysis, Annexin V and PI staining. It counts as cell-based, human. The following applies: 24 h, 5g 500, 6c 85, 6d 117, 6k 200 µg/mL. The method, then:
(§3) To uncover the mechanism of cell death for the compounds 5h, 6c, 6d and 6k on WI-38, A549, and MDA-MB-231 cells; Annexin v and propedium Iodide (PI) were used. In brief, WI-38, A549, MDA-MB-231 cells were cultured in 10 tissue culture dish with initial number 4 × 10^5 cell/Ml in RPMI growth media. In the following day, cells were treated with 6c, 6d and 6k as the following; (0.0, 500 μg/mL form each drug for WI-38 treatment, 0.0, 85, 117 and 200 μg/mL; respectively, for […] and 0.0, 250 from each for MDA-MB-231 cells treatment). After 24 h incubations, cells were washed and trypsinized and suspended in 50 μL 1X Annexin v binding buffer followed by adding 5 μL FITC Annexin V and incubated for 15 min at room temperature then 5 μL of PI were added to each tube. Finally, 400 μL of 1X Annexin v binding buffer were added to each tube and analyzed using Becton-Dickinson FACS Caliber.
In general terms: Flow cytometry measures light scatter and fluorescence of single cells or particles in a stream.

Assay [7] relates to WI-38 cells. In words: FACS analysis, Annexin V and PI staining. It counts as cell-based, human. The conditions noted are these: 24 h, 5g 1000 µg/mL, 6c, 6d, 6k 500 µg/mL. The method, then: as §3
Assay [8] deals with MDA-MB-231 cells. In words: FACS analysis, Annexin V and PI staining. In kind it is cell-based, human. The following applies: 24 h, 5g 500, 6c 105, 6d 170, 6k 130 µg/mL. The method, then: To uncover the mechanism of cell death for the compounds 5h, 6c, 6d and 6k on WI-38, A549, and MDA-MB-231 cells; Annexin v and propedium Iodide (PI) were used. In brief, WI-38, A549, MDA-MB-231 cells were cultured in 10 tissue culture dish with initial number 4 × 10^5 cell/Ml in RPMI growth media. […] After 24 h incubations, cells were washed and trypsinized and suspended in 50 μL 1X Annexin v binding buffer followed by adding 5 μL FITC Annexin V and incubated for 15 min at room temperature then 5 μL of PI were added to each tube. Finally, 400 μL of 1X Annexin v binding buffer were added to each tube and analyzed using Becton-Dickinson FACS Caliber.

In general, zone of inhibition refers to the extent of the growth-free halo in a diffusion test. A lower zone of inhibition goes with a weaker effect on the plate. A word on the IC50: it is the concentration needed to halve the response being measured. Take `O=C1C(Cl)C(c2ccc(Cl)cc2)N1c1nc(-c2cc(Cl)cc3c2-c2ccc(Cl)cc2C3)cs1` (stereo not drawn) [6c, 3-Chloro-4-(4-chlorophenyl)-1-(4-(2,7-dichloro-9H-fluoren-4-yl)thiazol-2-yl)azetidin-2-one]: in assay [1], the zone of inhibition at 500 µg/mL was found to be 6 mm. For the same molecule, the zone of inhibition at 500 µg/mL in assay [2] came to 10 mm. In addition, the zone of inhibition at 500 µg/mL in assay [3] is 7 mm. Also, in assay [4], the viability at 1 µg/mL came to 92.8%, the viability at 10 µg/mL is 77.8%, the viability at 31.25 µg/mL was found to be 63.1% and the viability at 62.5 µg/mL is 53.1%. In addition, in assay [4], the viability at 125 µg/mL was 46%, the viability at 250 µg/mL came out at 29.4%, the viability at 500 µg/mL was 24.8% and 104 mg/L (≈ 195 µM) corresponded to half-maximal inhibition (IC50). In assay [5], the viability at 31.25 µg/mL is 94.5%, the viability at 62.5 µg/mL was determined as 65.9%, the viability at 125 µg/mL is 63.4% and the viability at 250 µg/mL was 59.5%. In assay [5], the viability at 500 µg/mL was 55.5% and the IC50 is over 500 mg/L. Also, in assay [6], the “apoptotic cell death (of total cell number)” value (from here on “apoptotic cell death”) is reported as 27.32% and the “necrotic cell death (of total cell number)” value (shortened to “necrotic cell death”) stood at 2.1%. In assay [7], the “apoptotic cell death” value is recorded as 1.22% and the “necrotic cell death” value is on record as 14.5%. In assay [8], the “apoptotic cell death” value was 80.32% and the “necrotic cell death” value is reported as 2.15%.
In turn, `O=C1C(Cl)C(c2ccc(Br)cc2)N1c1nc(-c2cc(Cl)cc3c2-c2ccc(Cl)cc2C3)cs1` (stereo not drawn) [6d, 4-(4-Bromophenyl)-3-chloro-1-(4-(2,7-dichloro-9H-fluoren-4-yl)thiazol-2-yl)azetidin-2-one] yielded a zone of inhibition at 500 µg/mL in assay [1] of 6 mm. Besides, in assay [2], the zone of inhibition at 500 µg/mL was found to be 10 mm. Moreover, in assay [3], the “Mean zone of inhibition” value was “low activity” and the zone of inhibition at 500 µg/mL came out at 3 mm. Further, in assay [4], the viability at 1 µg/mL was determined as 93.3%, the viability at 10 µg/mL was 89.1%, the viability at 31.25 µg/mL amounted to 75.8% and the viability at 62.5 µg/mL was found to be 63.3%. Moreover, in assay [4], the viability at 125 µg/mL came out at 53.1%, the viability at 250 µg/mL was determined as 27.7%, the viability at 500 µg/mL was determined as 24% and it took 169 mg/L (≈ 293 µM) to reach half-maximal inhibition (IC50). Also, in assay [5], the viability at 31.25 µg/mL came to 92%, the viability at 62.5 µg/mL is 88.1%, the viability at 125 µg/mL turned out to be 78.6% and the viability at 250 µg/mL was determined as 67.5%. Further, in assay [5], the viability at 500 µg/mL is 67.7% and the IC50 is over 500 mg/L. In addition, in assay [6], the “apoptotic cell death” value worked out at 36.3% and the “necrotic cell death” value was found to be 2%. In assay [7], the “apoptotic cell death” value was 1.34% and the “necrotic cell death” value is 14.1%. The “apoptotic cell death” value in assay [8] came out at 55.355%.
In assay [1], `O=C1C(Cl)C(c2cccs2)N1c1nc(-c2cc(Cl)cc3c2-c2ccc(Cl)cc2C3)cs1` (stereo not drawn) [6k, 3-Chloro-1-(4-(2,7-dichloro-9H-fluoren-4-yl)thiazol-2-yl)-4-(thiophen-2-yl)azetidin-2-one] had a zone of inhibition at 500 µg/mL of 3 mm. The molecule further displayed a zone of inhibition at 500 µg/mL in assay [2] of 11 mm. In assay [3], this molecule registered a zone of inhibition at 500 µg/mL of 7 mm. In addition, in assay [4], the viability at 1 µg/mL came out at 96.4%, the viability at 10 µg/mL turned out to be 90.7%, the viability at 31.25 µg/mL amounted to 78.6% and the viability at 62.5 µg/mL amounted to 69.6%. In assay [4], the viability at 125 µg/mL was 51%, the viability at 250 µg/mL was 33.3%, the viability at 500 µg/mL came to 19.1% and inhibition was half-maximal at 131 mg/L (≈ 260 µM) (IC50). In assay [5], the viability at 31.25 µg/mL was determined as 77.9%, the viability at 62.5 µg/mL was found to be 64%, the viability at 125 µg/mL was determined as 61.3% and the viability at 250 µg/mL is 60.3%. In addition, in assay [5], the viability at 500 µg/mL was 58.3% and the IC50 is over 500 mg/L. Moreover, in assay [6], the “apoptotic cell death” value came to 32.67% and the “necrotic cell death” value is recorded as 1.71%. In assay [7], the “apoptotic cell death” value was found to be 0.61% and the “necrotic cell death” value is reported as 9.93%. In assay [8], the “apoptotic cell death” value amounted to 67.25% and the “necrotic cell death” value is 4.56%.
